The NIST ThermoML archive (doi:10.1021/je020131a)
Numbers after ± are expanded uncertainties.

Experiment: xn = mol fraction of the nth substance listed
Settings: 101.3 kPa, Liquid, Falling or rolling sphere viscometry

CCCCCCC [heptane] + COC(=O)OC
x2 = 0
Settings | viscosity [mPa·s]
293.15 K | 0.411 ± 0.02
298.15 K | 0.388 ± 0.02
303.15 K | 0.37 ± 0.02
313.15 K | 0.334 ± 0.02

CCCCCC [hexane] + CCOC(=O)OCC
x2 = 0
Settings | viscosity [mPa·s]
293.15 K | 0.313 ± 0.02
298.15 K | 0.301 ± 0.02
303.15 K | 0.282 ± 0.02
313.15 K | 0.258 ± 0.02

CCCCCCC [heptane] + CCOC(=O)OCC
x2 = 0
Settings | viscosity [mPa·s]
293.15 K | 0.411 ± 0.02
298.15 K | 0.388 ± 0.02
303.15 K | 0.375 ± 0.02
313.15 K | 0.334 ± 0.02

CCOC(=O)OCC [diethyl carbonate] + CCCCCC
Settings | viscosity [mPa·s]
293.15 K, x1 = 0.0576 | 0.318 ± 0.02
293.15 K, x1 = 0.1106 | 0.326 ± 0.02
293.15 K, x1 = 0.2219 | 0.353 ± 0.02
293.15 K, x1 = 0.3358 | 0.388 ± 0.02
293.15 K, x1 = 0.4303 | 0.422 ± 0.02
293.15 K, x1 = 0.5384 | 0.471 ± 0.02
293.15 K, x1 = 0.6357 | 0.524 ± 0.02
293.15 K, x1 = 0.7334 | 0.588 ± 0.021
293.15 K, x1 = 0.8246 | 0.652 ± 0.021
293.15 K, x1 = 0.9171 | 0.721 ± 0.021
293.15 K, x1 = 0.9589 | 0.757 ± 0.021
293.15 K, x1 = 1 | 0.795 ± 0.021
298.15 K, x1 = 0.0586 | 0.318 ± 0.02
298.15 K, x1 = 0.1024 | 0.323 ± 0.02
298.15 K, x1 = 0.2106 | 0.347 ± 0.02
298.15 K, x1 = 0.305 | 0.37 ± 0.02
298.15 K, x1 = 0.3592 | 0.389 ± 0.02
298.15 K, x1 = 0.4259 | 0.412 ± 0.02
298.15 K, x1 = 0.5719 | 0.475 ± 0.02
298.15 K, x1 = 0.7051 | 0.546 ± 0.02
298.15 K, x1 = 0.7965 | 0.605 ± 0.021
298.15 K, x1 = 0.8894 | 0.67 ± 0.021
298.15 K, x1 = 0.9095 | 0.688 ± 0.021
298.15 K, x1 = 0.9794 | 0.737 ± 0.021
298.15 K, x1 = 1 | 0.749 ± 0.021
303.15 K, x1 = 0.0583 | 0.292 ± 0.02
303.15 K, x1 = 0.0941 | 0.299 ± 0.02
303.15 K, x1 = 0.1925 | 0.324 ± 0.02
303.15 K, x1 = 0.2897 | 0.347 ± 0.02
303.15 K, x1 = 0.3927 | 0.378 ± 0.02
303.15 K, x1 = 0.5087 | 0.42 ± 0.02
303.15 K, x1 = 0.6072 | 0.463 ± 0.02
303.15 K, x1 = 0.7059 | 0.512 ± 0.02
303.15 K, x1 = 0.8002 | 0.568 ± 0.02
303.15 K, x1 = 0.8947 | 0.628 ± 0.021
303.15 K, x1 = 0.9532 | 0.672 ± 0.021
303.15 K, x1 = 1 | 0.699 ± 0.021
313.15 K, x1 = 0.0502 | 0.264 ± 0.02
313.15 K, x1 = 0.1001 | 0.278 ± 0.02
313.15 K, x1 = 0.2001 | 0.295 ± 0.02
313.15 K, x1 = 0.3008 | 0.318 ± 0.02
313.15 K, x1 = 0.4021 | 0.344 ± 0.02
313.15 K, x1 = 0.4972 | 0.371 ± 0.02
313.15 K, x1 = 0.5992 | 0.41 ± 0.02
313.15 K, x1 = 0.7005 | 0.454 ± 0.02
313.15 K, x1 = 0.8096 | 0.509 ± 0.02
313.15 K, x1 = 0.898 | 0.558 ± 0.02
313.15 K, x1 = 0.9671 | 0.599 ± 0.021
313.15 K, x1 = 1 | 0.623 ± 0.021

COC(=O)OC [dimethyl carbonate] + CCCCCC
Settings | viscosity [mPa·s]
293.15 K, x1 = 0.0722 | 0.312 ± 0.02
293.15 K, x1 = 0.1448 | 0.315 ± 0.02
293.15 K, x1 = 0.2286 | 0.325 ± 0.02
293.15 K, x1 = 0.3026 | 0.338 ± 0.02
293.15 K, x1 = 0.4102 | 0.359 ± 0.02
293.15 K, x1 = 0.5062 | 0.384 ± 0.02
293.15 K, x1 = 0.6026 | 0.412 ± 0.02
293.15 K, x1 = 0.7052 | 0.451 ± 0.02
293.15 K, x1 = 0.7974 | 0.494 ± 0.02
293.15 K, x1 = 0.901 | 0.552 ± 0.021
293.15 K, x1 = 0.9506 | 0.585 ± 0.021
293.15 K, x1 = 1 | 0.626 ± 0.021
298.15 K, x1 = 0.082 | 0.306 ± 0.02
298.15 K, x1 = 0.1269 | 0.311 ± 0.02
298.15 K, x1 = 0.2131 | 0.322 ± 0.02
298.15 K, x1 = 0.3197 | 0.336 ± 0.02
298.15 K, x1 = 0.3787 | 0.345 ± 0.02
298.15 K, x1 = 0.4712 | 0.362 ± 0.02
298.15 K, x1 = 0.5121 | 0.37 ± 0.02
298.15 K, x1 = 0.6067 | 0.392 ± 0.02
298.15 K, x1 = 0.6987 | 0.423 ± 0.02
298.15 K, x1 = 0.842 | 0.487 ± 0.02
298.15 K, x1 = 0.9248 | 0.53 ± 0.021
298.15 K, x1 = 0.9615 | 0.555 ± 0.021
298.15 K, x1 = 1 | 0.585 ± 0.021
303.15 K, x1 = 0.0468 | 0.287 ± 0.02
303.15 K, x1 = 0.0991 | 0.293 ± 0.02
303.15 K, x1 = 0.1951 | 0.305 ± 0.02
303.15 K, x1 = 0.295 | 0.314 ± 0.02
303.15 K, x1 = 0.3832 | 0.327 ± 0.02
303.15 K, x1 = 0.4865 | 0.342 ± 0.02
303.15 K, x1 = 0.5899 | 0.363 ± 0.02
303.15 K, x1 = 0.696 | 0.394 ± 0.02
303.15 K, x1 = 0.7947 | 0.433 ± 0.02
303.15 K, x1 = 0.8939 | 0.478 ± 0.02
303.15 K, x1 = 0.9436 | 0.507 ± 0.02
303.15 K, x1 = 1 | 0.536 ± 0.021
313.15 K, x1 = 0.0495 | 0.267 ± 0.02
313.15 K, x1 = 0.1 | 0.274 ± 0.02
313.15 K, x1 = 0.2092 | 0.286 ± 0.02
313.15 K, x1 = 0.3093 | 0.296 ± 0.02
313.15 K, x1 = 0.4043 | 0.306 ± 0.02
313.15 K, x1 = 0.4941 | 0.321 ± 0.02
313.15 K, x1 = 0.6052 | 0.347 ± 0.02
313.15 K, x1 = 0.7063 | 0.379 ± 0.02
313.15 K, x1 = 0.8046 | 0.416 ± 0.02
313.15 K, x1 = 0.9014 | 0.458 ± 0.02
313.15 K, x1 = 0.9497 | 0.477 ± 0.02
313.15 K, x1 = 1 | 0.494 ± 0.02

CCCCCCCC [octane] + COC(=O)OC
x2 = 0
Settings | viscosity [mPa·s]
293.15 K | 0.545 ± 0.021
298.15 K | 0.513 ± 0.021
303.15 K | 0.484 ± 0.02
313.15 K | 0.434 ± 0.02

CCOC(=O)OCC [diethyl carbonate] + C1CCCCC1
Settings | viscosity [mPa·s]
293.15 K, x1 = 0.0501 | 0.906 ± 0.021
293.15 K, x1 = 0.0992 | 0.85 ± 0.021
293.15 K, x1 = 0.1969 | 0.78 ± 0.021
293.15 K, x1 = 0.2923 | 0.741 ± 0.021
293.15 K, x1 = 0.4023 | 0.72 ± 0.021
293.15 K, x1 = 0.502 | 0.712 ± 0.021
293.15 K, x1 = 0.5984 | 0.718 ± 0.021
293.15 K, x1 = 0.6977 | 0.728 ± 0.021
293.15 K, x1 = 0.808 | 0.742 ± 0.021
293.15 K, x1 = 0.9037 | 0.761 ± 0.021
293.15 K, x1 = 0.9511 | 0.776 ± 0.021
293.15 K, x1 = 1 | 0.795 ± 0.021
298.15 K, x1 = 0.0531 | 0.832 ± 0.021
298.15 K, x1 = 0.094 | 0.792 ± 0.021
298.15 K, x1 = 0.1931 | 0.725 ± 0.021
298.15 K, x1 = 0.2865 | 0.691 ± 0.021
298.15 K, x1 = 0.3821 | 0.676 ± 0.021
298.15 K, x1 = 0.4802 | 0.674 ± 0.021
298.15 K, x1 = 0.6454 | 0.685 ± 0.021
298.15 K, x1 = 0.6801 | 0.689 ± 0.021
298.15 K, x1 = 0.7828 | 0.701 ± 0.021
298.15 K, x1 = 0.8852 | 0.719 ± 0.021
298.15 K, x1 = 0.9177 | 0.726 ± 0.021
298.15 K, x1 = 1 | 0.749 ± 0.021
303.15 K, x1 = 0.0497 | 0.76 ± 0.021
303.15 K, x1 = 0.1018 | 0.717 ± 0.021
303.15 K, x1 = 0.1958 | 0.665 ± 0.021
303.15 K, x1 = 0.293 | 0.637 ± 0.021
303.15 K, x1 = 0.3922 | 0.628 ± 0.021
303.15 K, x1 = 0.4767 | 0.626 ± 0.021
303.15 K, x1 = 0.5943 | 0.635 ± 0.021
303.15 K, x1 = 0.6778 | 0.643 ± 0.021
303.15 K, x1 = 0.7897 | 0.657 ± 0.021
303.15 K, x1 = 0.8649 | 0.671 ± 0.021
303.15 K, x1 = 0.94 | 0.684 ± 0.021
303.15 K, x1 = 1 | 0.699 ± 0.021
313.15 K, x1 = 0.0511 | 0.659 ± 0.021
313.15 K, x1 = 0.0983 | 0.632 ± 0.021
313.15 K, x1 = 0.2003 | 0.594 ± 0.021
313.15 K, x1 = 0.3002 | 0.572 ± 0.02
313.15 K, x1 = 0.3963 | 0.56 ± 0.02
313.15 K, x1 = 0.4953 | 0.563 ± 0.02
313.15 K, x1 = 0.5914 | 0.568 ± 0.02
313.15 K, x1 = 0.7001 | 0.576 ± 0.02
313.15 K, x1 = 0.8098 | 0.589 ± 0.021
313.15 K, x1 = 0.9014 | 0.603 ± 0.021
313.15 K, x1 = 0.9494 | 0.613 ± 0.021
313.15 K, x1 = 1 | 0.623 ± 0.021
